The values that follow come from US12491172B2, “Treatment of diabetes” (priority 2019, dated 2025).

What all share (format): cell-based, mouse
One assay has as its system HIF-1α. Put plainly: HIF-1α and GLUT1 protein levels in isolated pancreatic islets (immunoblotting). The note with it: islets treated with GKA50 alone, 20 hours.
The test system of assay [1] is isolated pancreatic islets. Put plainly: Static batch incubation (insulin secretion) of isolated islets.
The subject of assay [2] is isolated pancreatic islets. Put plainly: Measurements of cytoplasmic free Ca2+-concentration in islets.
In the next assay the test system is HIF-1α target genes. Put plainly: Gene expression of HIF-1α target genes in isolated islets (RT-qPCR). In general terms: Real-time PCR tracks product formation cycle by cycle.
Assay [3] relates to isolated pancreatic islets. Put plainly: Cellular hypoxia in isolated islets (pimonidazole adducts). How it is done:
For experiments using the hypoxic marker pimonidazole, islets were cultured overnight in RPMI 1640 with 11 mM glucose and fasted for 1 hour in RPMI 1640 with 5.5 mM glucose. Subsequently islets were moved to medium containing 5.5 mM, 11 mM or 22 mM glucose, either with or without the glucokinase activator 10 μM of the glucokinase activator GKA50 (Sigma), 50 μM nifedipine (Sigma) or 100 μM diaxozide (Sigma) as indicated (FIGS. 1A and B). Islets were cultured during 8 hours before lysis. During the last 2 hours pimonidazole (Hypoxyprobe, HPI, Inc) was added to the medium. The hypoxic sample were cultured under 8% O2 during the last 2 hours before the lysis.
Islets were sonicated in RIPA buffer (50 mM Tris-HCl pH7.4, 150 mM NaCl, 1% NP-40, 0.5% Na deoxycholate, 0.1% SDS, 1 mM EDTA, protease inhibitor mix (Complete-Mini, Roche), 0.5 mM phenylmethylsulfonyl fluoride (PMSF) and 0.5 mM dithiothreitol). Lysates were cleared by centrifugation for 30 min at 14.000 r.p.m., and proteins were separated by SDS-PAGE and blotted onto nitrocellulose membranes. […]

Setting [4] is: islets treated with GKA50 alone, 20 hours.

Structures are written as SMILES.

In the case of `COC[C@H](C)Oc1cc(O[C@@H](C)Cc2ccccc2)cc(C(=O)Nc2ccc(C(=O)O)cn2)c1` [GKA50], the “HIF-1α stabilization and GLUT1 protein levels” value in the assay on HIF-1α was “led to HIF-1α stabilization and increased GLUT1 protein levels”. Further, in assay [1] (3.3 mM glucose, after 20 hours treatment and 2 hours fasting), the basal insulin secretion result is recorded as “dose response-dependent increase in basal insulin secretion”. Further, in assay [1] (16.7 mM glucose, after 20 hours treatment), the “insulin release at high glucose concentration” value is on record as “without impacting on insulin release at high glucose concentration”. This compound also displayed a secretory index in assay [1] (GKA50-treated islets in absence (1.2) or presence (3.4) of the HIF-1α inhibitor) of 1.2 fold. Besides, the insulin content result in assay [1] (islets treated with GKA50 with or without PX-478) is listed as “no impact on insulin content”. For the same compound, the “speed of [Ca2+]i response to glucose” value in assay [2] (20 μM GKA50 with or without 50 μM PX-478) is on record as “faster response to glucose”. For the same compound, the “basal [Ca2+]i oscillations” value in assay [2] (3 mM glucose, after 20 hours 20 μM GKA50 with or without 50 μM PX-478 and 2 hours fasting) was “displayed [Ca^2+]i oscillations already under basal low glucose concentration”. The “Gck mRNA level” value in the assay on HIF-1α target genes (islets treated with GKA50, compared to untreated islets) is “reduced”. For the same compound, in the assay on HIF-1α target genes (setting [4]), the “gene expression of Glut1, Igfbp3, Hk2, Pgk1 and Pdk1” value is listed as “Induction”; the “mRNA expression of Ldha and Bnip3” value is “not induced”. In addition, the “formation of pimonidazole adducts (cellular hypoxia)” value in assay [3] (isolated islets, 8 hours, 10 μM GKA50) is “increase in the formation of pimonidazole adducts”.
For `CC1=Nc2ccc(Cl)cc2S(=O)(=O)N1` [diaxozide], in assay [3] (islets treated with GKA50 in the presence of 50 μM nifedipine or 100 μM diaxozide), the “levels of pimonidazole adducts” value is reported as “no decrease in levels of pimonidazole adducts”.
